Columns and labels:
[1] = system: plasma membrane fragments obtained from PC12 cells; assay: Chromatic response (% CR) of the polydiacetylene construct made with plasma membrane fragments from PC12 cells (detects membrane-permeating drugs); assay type: in vitro ADME; conditions: analyte up to 11 μM; 25 mM Tris base pH 8; FIG. 2
Description: FIG. 2 illustrates the detection of a drug molecule capable of permeating cellular membrane using the construct of the invention (comprising plasma membrane fragments obtained from PC12 cells and polydiacetylene).
(§1) 20 μl of 10,12-tricosadionic acid taken from a stock solution in 60 mM chloroform/ethanol (1:1) are dried in vacuo up to constant weight. The dried material is then resuspended in 1.950 ml deionized water and subjected to probe sonication at 70° C. for 3 minutes. The solution thus obtained is then cooled for 15 minutes, and 50 μl of plasma membrane from PC12 cells (prepared as described hereinabove) is added thereto. The vesicle suspension obtained thereby is then subject to another round of sonication for 10 seconds, left to cool to room temperature and than stored at 4° C. overnight.
Aqueous stock solutions containing 5.2 mg/ml propranolol and 1.5 mg/ml amoxicillin were prepared. […]
FIG. 2 depicts the chromatic response factor calculated for various Propranol- or Amoxicillin-containing samples on the basis of the UV-vis spectra measured, versus the concentration of the analyte (that is, either Propranol or Amoxicillin) in said samples. […]

muscarinic receptor = assay: Chromatic response (% CR) of the polydiacetylene construct made with crude membrane fragments from PC12 cells overexpressing the muscarinic receptor; assay type: binding; conditions: atropine up to 20 μM; 25 mM Tris base pH 8; compared with construct from regular PC12 crude membrane; FIG. 1
Description: PC12 cells overexpressing the muscarinic receptors were prepared using conventional transfection techniques, as described, for example, by Sadot et al. [Israel Journal of neurochemistry (1996 February), 66(2), 877-80.]
as §1, with “crude” for “plasma”, “hereinabove and containing 10 mg/ml protein)” for “hereinabove)”
An aqueous stock solution containing Atropine at a concentration of 0.55 mg/ml was prepared. […]
The UV-vis spectroscopic measurements were carried out three times for each of the samples prepared, using a Jena Analytical Elisa-reader using 96 well microplates. The blue-to-red chromatic transitions were quantified using the chromatic response factor, as defined below:
where Ablue and Ared are the absorbance measured at about 640 nm and about 500 nm, respectively. […]

chromatic change (% CR) [1] | Structure (SMILES) | chromatic transition (% CR) (muscarinic receptor)
very low % CR | CC1(C)S[C@@H]2[C@H](NC(=O)[C@H](N)c3ccc(O)cc3)C(=O)N2[C@H]1C(=O)O [Amoxicillin] | 
 | CN1[C@@H]2CC[C@H]1C[C@@H](OC(=O)C(CO)c1ccccc1)C2 (stereo partly drawn) [atropine, Atropine] | high % CR
high % CR | CC(C)NCC(O)COc1cccc2ccccc12 (stereo not drawn) [propranolol] | 

Source: US20080299598A1, “Detector Comprising a Membrane Perturbation - Detecting Polymer and Functional Membrane Fragments” (priority 2004, published 2008)
